Test results: patent US11744839B2, “Method of increasing platelet counts of a subject” (KOREA BASIC SCIENCE INSTITUTE, priority 2021, dated 2023)

How the values were obtained:
BLVRB [1] = target: T1, BLVRB (Homo sapiens, UniProt P30043); test: Isothermal titration calorimetry (ITC) of compound binding to BLVRB; conditions: for TΔS / ΔG / ΔH (enthalpy of the reaction) / N (stoichiometry) / contribution from entropy, of the total binding energy: 25 °C; for N (stoichiometry): single-site binding model; for Kd: read-out: KD (dissociation constant), 25 °C
T1 sequence (P30043 1-206): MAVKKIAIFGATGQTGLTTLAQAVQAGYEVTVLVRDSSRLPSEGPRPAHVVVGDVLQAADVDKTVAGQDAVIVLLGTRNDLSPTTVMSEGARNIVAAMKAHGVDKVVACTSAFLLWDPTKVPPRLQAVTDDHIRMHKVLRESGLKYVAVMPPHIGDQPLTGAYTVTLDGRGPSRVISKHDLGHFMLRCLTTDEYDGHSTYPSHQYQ

BLVRB [2] = target: T1, BLVRB; test: Dynamic light scattering (DLS) of BLVRB with inhibitor; conditions: molar ratio 0, 1, 5, 10 compound/BLVRB
Source text: FIGS. 2A and 2B show DLS results of BLVRB depending on the concentration of phloxine B (FIG. 2A) and erythorosin B (FIG. 2B). Molar ratio of the sample is 0, 1, 5, 10 [erythrosin B or phloxine B/BLVRB]. The horizontal axis represents the diameter of each drug on a logarithmic scale. The vertical axis represents the relative intensity of the signal.
(§1) The inhibition mechanism of these two compounds was investigated in physiological environment by NMR.

BLVRB [3] = target: T1, BLVRB; test: NMR titration (HSQC) experiments with 15N-labeled BLVRB; assay type: binding; conditions: half-holo BLVRB 0.3 mM, ratio up to 1:10
Procedure: Ratio 1:0, 1:0.6, 1:1, 1:10 [Half-holo form of BLVRB (0.3 mM):phloxine B and erythrosin B].
as §1
Protein-based NMR spectroscopy is one of the most well-suited methods to identify intermolecular interactions including small molecule and protein interactions. Further, protein-based NMR methods provide information on binding sites, which is of prime interest for optimizing small molecules. Therefore, HSQC experiments of ^15N-labeled BLVRB were performed by titrating increasing amounts of the subject compounds to monitor the chemical shift changes upon the binding of the compounds identified in the enzyme activity assay. In particular, Ser111 was previously identified as a key residue involved in the catalytic mechanism of BLVRB. […] Using the assignment, the chemical shift perturbations (CSPs) of BLVRB by each drug were extracted from the spectra and the binding site of each drug was identified based on the CSPs.
Half-holo form of BLVRB (with NADP^+) was used for NMR experiments. All the subject compounds were dissolved in DMSO-d6. NMR titration and 1D experiments were operated at a ^1H frequency of 800 MHz using a Bruker Avance spectrometer. All experiments were performed at 298 K and 5 mm diameter NMR tubes with a sample volume 500 μL were used.

rats = conditions: chronic administration; cited from earlier work

Row | SMILES | TΔS (BLVRB [1]) | ΔG (BLVRB [1]) | ΔH (enthalpy of the reaction) (BLVRB [1]) | N (stoichiometry) (BLVRB [1]) | Kd (BLVRB [1]) | contribution from entropy, of the total binding energy (BLVRB [1]) | size of BLVRB-inhibitor complex (BLVRB [2]) | multimerization of BLVRB upon addition of compound (BLVRB [3]) | thyroid tumor promotion (rats)
1 | O=C(O)c1cc(/N=N/c2ccc(S(=O)(=O)Nc3ccccn3)cc2)ccc1O [Compound of formula 1] | -0.76 ± 0.07 kcal/mol | -8.67 ± 0.05 kcal/mol | -9.43 ± 0.05 kcal/mol | 0.99 | 440 ± 40 nM | – | – | – | –
2 | O=C(O)c1cc2ccccc2c(Cc2c(O)c(C(=O)O)cc3ccccc23)c1O [Compound of formula 8] | 1.08 ± 0.17 kcal/mol | -7.84 ± 0.10 kcal/mol | -6.76 ± 0.13 kcal/mol | 1.01 | 1800 ± 310 nM | – | – | – | –
3 | O=C(O)c1ccccc1-c1c2cc(I)c(=O)c(I)c-2oc2c(I)c(O)c(I)cc12 [Erythrosin B, reference compound] | 2.91 ± 0.13 kcal/mol | -9.28 ± 0.11 kcal/mol | -6.38 ± 0.06 kcal/mol | 1.04 | 160 ± 30 nM | 31% | increase in the size of the BLVRB-inhibitor complex | induce multimerization of BLVRB | promote thyroid tumors in rats
4 | O=C([O-])c1c(Cl)c(Cl)c(Cl)c(Cl)c1-c1c2cc(Br)c(=O)c(Br)c-2oc2c(Br)c([O-])c(Br)cc12.[Na+].[Na+] [Phloxine B, reference compound] | 4.12 ± 0.12 kcal/mol | -8.00 ± 0.10 kcal/mol | -3.88 ± 0.06 kcal/mol | 0.99 | 1360 ± 220 nM | – | increase in the size of the BLVRB-inhibitor complex | induce multimerization of BLVRB | –

Continued, in another order:

Row | TΔS (BLVRB [1]) | ΔG (BLVRB [1]) | ΔH (enthalpy of the reaction) (BLVRB [1]) | N (stoichiometry) (BLVRB [1]) | Kd (BLVRB [1]) | contribution from entropy, of the total binding energy (BLVRB [1]) | SMILES | size of BLVRB-inhibitor complex (BLVRB [2]) | multimerization of BLVRB upon addition of compound (BLVRB [3]) | thyroid tumor promotion (rats)
5 | 3.50 ± 0.10 kcal/mol | -7.99 ± 0.08 kcal/mol | -4.49 ± 0.06 kcal/mol | 1.07 | 1380 ± 180 nM | 44% | CC1(C)CCC(C)(C)c2cc(NC(=O)c3ccc(C(=O)O)cc3)ccc21 [Compound of formula 3] | – | – | –
6 | -1.83 ± 0.09 kcal/mol | -9.13 ± 0.07 kcal/mol | -10.96 ± 0.06 kcal/mol | 1.02 | 200 ± 20 nM | – | O=C(O)c1cccc(-c2noc(-c3ccccc3F)n2)c1 [Compound of formula 4] | – | – | –
7 | 2.14 ± 0.11 kcal/mol | -7.90 ± 0.08 kcal/mol | -5.75 ± 0.08 kcal/mol | 1.01 | 1630 ± 210 nM | – | Cc1nc(-c2ccc(OCC(C)C)c(C#N)c2)sc1C(=O)O [Compound of formula 5] | – | – | –
8 | 0.55 ± 0.12 kcal/mol | -7.87 ± 0.07 kcal/mol | -7.32 ± 0.10 kcal/mol | 1.00 | 1710 ± 210 nM | – | O=C(O)c1ccc(-n2nc(-c3ccccc3O)nc2-c2ccccc2O)cc1 [Compound of formula 6] | – | – | –
9 | 0.41 ± 0.07 kcal/mol | -8.95 ± 0.06 kcal/mol | -8.54 ± 0.04 kcal/mol | 0.99 | 270 ± 30 nM | – | Cc1c(Nc2ncccc2C(=O)O)cccc1C(F)(F)F [Compound of formula 7] | – | – | –
